The nature of this data set: comparative solubility study, saturated solutions at 25° C., assayed by liquid chromatography. In kind it is physicochemical. The procedure: The media studied are water, ethanol and a water/polyethylene glycol 400 mixture (70/30 v/v).
The solubility measurements were made at 25° C. after stirring of the saturated solutions for 3 or 5 hours.
After achieving conditions under which the products solubilized in water are not adsorbed on certain filters, the solutions are filtered and then assayed by liquid chromatography (column μmBondapak C18, eluent acetonitrile/trifluoroacetic acid, detection at 254 nm, flow rate 1 ml/minute).

[1] abbreviates: organic solvent or mixture, ethanol, stirring of saturated solution for 3 or 5 hours, read-out: solubility in ethanol.
The mark [2] stands for this setting: water, stirring of saturated solution for 3 or 5 hours, read-out: solubility in water.
The mark [3] stands for this setting: water/peg 400 70/30, organic solvent or mixture, water/polyethylene glycol 400 mixture (70/30 v/v), stirring for 3 or 5 hours, read-out: solubility in water/PEG.

SMILES strings stand for the structures. Values after ≈ are worked out from the molar mass of the structure shown. Read-outs that look alike come from different tables or passages of the source.

Regarding `COc1cccc(OC)c1-c1cc(C(=O)NC2(C(=O)O)C3CC4CC(C3)CC2C4)nn1-c1cc[n+]([O-])c2cc(Cl)ccc12` (stereo not drawn) [EXAMPLE 2, 2-{[1-(1-oxido-7-chloroquinolin-4-yl)-5-(2,6-dimethoxyphenyl)-pyrazol-3-yl]carbonylamino}adamantane-2-carboxylic acid], the solubility reads like this: under setting [1], 10300 µg/mL (≈ 17100 µM); under setting [2], 1.7 µg/mL (≈ 2.82 µM); under setting [3], 30 µg/mL (≈ 49.7 µM).
For `COc1cccc(OC)c1-c1cc(C(=O)NC2(C(=O)O)C3CC4CC(C3)CC2C4)nn1-c1ccnc2cc(Cl)ccc12` (stereo not drawn) [SR48692, 2-{[1-(7-Chloroquinolin-4-yl)-5-(2,6-dimethoxyphenyl)pyrazol-3-yl]carbonylamino}adamantane-2-carboxylic acid] the same measures were 1300 µg/mL (≈ 2210 µM), 0.4 µg/mL (≈ 0.681 µM) and less than 1 µg/mL.

(Values after US5561234A, “1-(7-chloroquinolin-4-yl)pyrazole-3-carboxamide N-oxide derivatives, method of preparing them, and their pharmaceutical compositions” (Sanofi, priority 1994, dated 1996).)
